# Non-standard residues stand in square brackets, D forms with d. Residues, ends and D or L forms follow the SMILES beside them. *: point of attachment. Tyr(3-NO2) = N[C@@H](Cc1ccc(O)c([N+](=O)[O-])c1)C(=O)O; Benzoyl(2-COOH) = O=C(O)c1ccccc1C(=O)*; 2Nal = N[C@@H](Cc1ccc2ccccc2c1)C(=O)O; Tic = O=C(O)[C@@H]1Cc2ccccc2CN1; hLeu = CC(C)CC[C@H](N)C(=O)O; dNle = CCCC[C@@H](N)C(=O)O; Ac6c = NC1(C(=O)O)CCCCC1; Nle = CCCC[C@H](N)C(=O)O; Ac5c = NC1(C(=O)O)CCCC1; 2Abz = Nc1ccccc1C(=O)O
# Target: T1, Der pI (Dermatophagoides pteronyssinus, UniProt P08176)
# T1 construct: tissue SmithKline-Beecham, U.K (crude mite extract); host or cells: crude house dust mite extract
# T1 sequence (P08176 99-320): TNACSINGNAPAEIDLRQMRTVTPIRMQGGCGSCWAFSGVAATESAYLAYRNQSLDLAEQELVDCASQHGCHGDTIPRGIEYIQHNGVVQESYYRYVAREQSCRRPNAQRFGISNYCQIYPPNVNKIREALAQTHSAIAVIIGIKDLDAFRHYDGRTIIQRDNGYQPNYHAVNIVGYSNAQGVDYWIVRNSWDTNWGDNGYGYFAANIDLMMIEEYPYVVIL
# Assay: Der pI substrate assay with FRET peptides (fluorescence, Km, kcat/Km)
# Type: biochemical, house dust mite
# Parameters: key: NS indicates that the peptide was not hydrolysed by Der pI.; NM indicated that the peptide was a substrate for Der pI, but the Km was not measured.; NM^a indicates that the peptide was a substrate for Der pI, and its cleavage was followed by HPLC-MS showing hydrolysis to occur between-Nle-Ser-
# Conditions: purified Der pI; peptides SEQ ID Nos. 1-76
# Experimental: Using the general techniques described above, the following compounds were prepared and assayed as potential substrates against Der pI purified as described above.
# Each mixture of 20 compounds in the libraries of the apparatus described herein was screened at a concentration of 1.0 μM per compound in an assay against the cysteinyl protease Der pI.
# Plate assays were carried out in 96 well plate format, using 0.1 ug of Der pI per 100 μL assay volume in each well and using 20 μM of the substrate. All assays were performed in Assay Buffer (AB; 50 mM potassium phosphate, pH 8.25 containing 1 mM ethylenediaminetetraacetic acid (EDTA) and 1 mM dithiothreitol (DTT). The Der pI enzyme is pre-activated by addition of DTT and this in incubated at room temperature for 5 min. prior to initiation of the assay. As an example for the screening methodology, each well contains a 5 μL of a 20 μM solution of the test compound in DMSO, 10 μL of a 200 μM aqueous solution of the substrate, 2, and 85 μL of Der pI in AB is added to initiate the reaction. Enzyme activity is monitored by fluorescence using 320 nm for excitation and 420 nm for the emission wavelengths using a Labsystems Fluroskan Ascent machine. Kinetic measurements were carried out using a Hitachi F-4500 Fluorescence Spectrophotometer.
row,SMILES,substrate or not substrate for Der pI (symbols in Measured Km)
1,CCCC[C@H](NC(=O)[C@H](C)NC(=O)[C@@H](N)C(C)C)C(=O)N[C@@H](CO)C(=O)N[C@@H](Cc1ccc(O)c([N+](=O)[O-])c1)C(=O)N[C@@H](CC(=O)O)C(N)=O [H-Val-Ala-Nle-Ser-TyrNO2-Asp-NH2] (H-VA[Nle]S[Tyr(3-NO2)]D-NH2),NS
2,CC(C)CC[C@H](NC(=O)[C@@H](C)NC(=O)[C@@H](NC(=O)c1ccccc1N)C(C)C)C(=O)N[C@@H](CO)C(=O)N[C@@H](Cc1ccc(O)c([N+](=O)[O-])c1)C(=O)N[C@@H](CC(=O)O)C(N)=O [Abz-Val-DAla-hLeu-Ser-Tyr(NO2)-Asp-NH2] (H-[2Abz]V[dA][hLeu]S[Tyr(3-NO2)]D-NH2),NS
3,CC(C)CC[C@H](NC(=O)C1(NC(=O)[C@@H](NC(=O)c2ccccc2N)C(C)C)CCCCC1)C(=O)N[C@@H](CO)C(=O)N[C@@H](Cc1ccc(O)c([N+](=O)[O-])c1)C(=O)N[C@@H](CC(=O)O)C(N)=O [Abz-Val-ACH-hLeu-Ser-Tyr(NO2)-Asp-NH2] (H-[2Abz]V[Ac6c][hLeu]S[Tyr(3-NO2)]D-NH2),NS
4,CCCC[C@H](NC(=O)[C@H](C)NC(=O)[C@@H](N)C(C)C)C(=O)N[C@@H](CO)C(=O)N[C@@H](Cc1ccc(O)c([N+](=O)[O-])c1)C(N)=O [H-Val-Ala-Nle-Ser-Tyr(NO2)-NH2] (H-VA[Nle]S[Tyr(3-NO2)]-NH2),NS
5,CCCC[C@H](NC(=O)[C@H](C)NC(=O)[C@@H](NC(=O)c1ccccc1N)C(C)C)C(=O)N[C@@H](CO)C(=O)N[C@@H](Cc1ccc(O)cc1)C(=O)N[C@@H](CC(=O)O)C(N)=O [Abz-Val-Ala-Nle-Ser-Tyr-Asp-NH2] (H-[2Abz]VA[Nle]SYD-NH2),NM
6,CCCC[C@@H](NC(=O)[C@H](C)NC(=O)[C@@H](NC(=O)c1ccccc1N)C(C)C)C(=O)N[C@@H](CO)C(=O)N[C@@H](Cc1ccc(O)c([N+](=O)[O-])c1)C(=O)N[C@@H](CC(=O)O)C(N)=O [Abz-Val-Ala-DNle-Ser-Tyr(NO2)-Asp-NH2] (H-[2Abz]VA[dNle]S[Tyr(3-NO2)]D-NH2),NS
7,CC(C)CC[C@H](NC(=O)[C@H](Cc1ccc2ccccc2c1)NC(=O)[C@@H](NC(=O)c1ccccc1N)C(C)C)C(=O)N[C@@H](CO)C(=O)N[C@@H](Cc1ccc(O)c([N+](=O)[O-])c1)C(=O)N[C@@H](CC(=O)O)C(N)=O [Abz-Val-2Nal-hLeu-Ser-Tyr(NO2)-Asp-NH2] (H-[2Abz]V[2Nal][hLeu]S[Tyr(3-NO2)]D-NH2),NS
8,CCCC[C@H](NC(=O)[C@H](C)NC(=O)[C@@H](NC(=O)c1ccccc1C(=O)O)C(C)C)C(=O)N[C@@H](CO)C(=O)N[C@@H](Cc1ccc(O)c([N+](=O)[O-])c1)C(N)=O [Bz(2-carboxy)-Val-Ala-Nle-Ser-Tyr(NO2)-NH2] ({Benzoyl(2-COOH)}-VA[Nle]S[Tyr(3-NO2)]-NH2),NM^a
9,CC(C)CC[C@H](NC(=O)[C@H](C)NC(=O)[C@@H]1Cc2ccccc2CN1C(=O)c1ccccc1N)C(=O)N[C@@H](CO)C(=O)N[C@@H](Cc1ccc(O)c([N+](=O)[O-])c1)C(=O)N[C@@H](CC(=O)O)C(N)=O [Abz-Tic-Ala-hLeu-Ser-Tyr(NO2)-Asp-NH2] (H-[2Abz][Tic]A[hLeu]S[Tyr(3-NO2)]D-NH2),NS
10,CCCC[C@H](NC(=O)[C@H](C)NC(=O)[C@@H](NC(=O)[C@H](Cc1ccc(O)cc1)NC(=O)c1ccccc1N)C(C)C)C(=O)N[C@@H](CO)C(=O)N[C@@H](Cc1ccc(O)c([N+](=O)[O-])c1)C(=O)N[C@@H](CC(=O)O)C(N)=O [Abz-Tyr-Val-Ala-Nle-Ser-Tyr(NO2)-Asp-NH2] (H-[2Abz]YVA[Nle]S[Tyr(3-NO2)]D-NH2),NM
11,CC(C)[C@H](NC(=O)c1ccccc1N)C(=O)N[C@@H](C)C(=O)NC1(C(=O)N[C@@H](CO)C(=O)N[C@@H](Cc2ccc(O)c([N+](=O)[O-])c2)C(=O)N[C@@H](CC(=O)O)C(N)=O)CCCC1 [Abz-Val-Ala-ACP-Ser-Tyr(NO2)-Asp-NH2] (H-[2Abz]VA[Ac5c]S[Tyr(3-NO2)]D-NH2),NS

# — patent US6528275B1, “Substrates and inhibitors of proteolytic enzymes” (Peptide Therapeutics Limited, priority 1996, dated 2003)
